Broadly, the IC50 is the point on the concentration scale where inhibition reaches its midpoint.

Here are results for two compounds from PMC10318456, “Selective inhibitors of the PSEN1–gamma-secretase complex” (The Journal of Biological Chemistry, 2023).

Assay type in all cases: cell-based
In assay [1] the target is T1, PSEN1 M146A–APH1A γ-secretase complex (Homo sapiens, UniProt P49768, M146A).
T1 construct: expressed in transfected cells; host or cells: Psen1/2 double KO/Aph1ABC triple KO MEFs, pools without clonal selection
Put plainly: Aβ40 secretion, MEF cell pool restored with PSEN1 M146A–APH1A. The conditions noted are these: decimal comma; for IC50: PSEN1 M146A (TM2)–APH1A cell pool, N = 3 to 4, mean (95% CI); for IC50 fold change to WT: PSEN1 M146A–APH1A cell pool. The protocol:
(§1) We turned to experimental site–directed mutagenesis and selected a series of amino acids (Fig. 3) in the entrance channel for mutation to alanine. […] More importantly, they were all enzymatically active as shown by the secretion of Aβ40 in the supernatants of the cell cultures (Fig. 3B).
(§2) Conditional Psen1/2 double KO mice were crossed with conditional Aph1ABC triple KO mice ([29], [52], [58], [59]). At embryonic day 7.5, embryos were dissected and dissociated, and cells were plated in the presence of Dulbecco’s modified Eagle’s medium (DMEM)/F12 50% fetal calf serum (FCS) (Invitrogen). Primary MEFs were immortalized by transduction with LargeT antigen. Psen1/2 double KO/Aph1ABC triple KO MEFs were generated by transduction with a Cre-GFP–expressing adenoviral vector, and GFP-positive MEFs were sorted by fluorescence-activated cell sorting analysis. Psen1/2 Aph1ABC-deficient MEFs were maintained in DMEM/f12 10% FCS. To rescue γ-secretase expression, Psen1/2 double KO/Aph1ABC triple KO MEFs were transduced using Murine Stem Cell Virus retroviral vector system (pMSCV) viral vectors (Clontech) containing the human coding sequences of the different PSEN and APH1 homologs and the zeocin selection marker. An Internal Ribosome Entry Site sequence was cloned between the coding sequences for PSEN and APH1 to ensure co-expression of both proteins. Stable transfected cell lines were selected using 500-μg/ml zeocin (Invitrogen). Four different combinations were made: PSEN1 and APH1AL, PSEN1 and APH1B, PSEN2 and APH1AL, and PSEN2 and APH1B. These cell lines were transduced with pMSCV viral vectors (Clontech) expressing APP-C99-GFP-puromycin. After puromycin selection (5 μg/ml), GFP-positive cells were selected through FACS sorting. For the alanine mutagenesis experiment, pMSCV PSEN1-APH1A viral vectors were generated by using a long PCR-based QuikChange strategy (Stratagene). Stable cell lines without clonal selection were generated for each mutant as described above. All cell lines were regularly tested for the absence of mycoplasma and used for maximum 20 passages in culture.
(§3) The number of plated cells and incubation times were determined in respect to linearity of Aβ peptide secretion, the dynamic range of Aβ peptide quantification in the medium, and sensitivity to dimethylsulfoxide (DMSO). […] MEF cells were plated in DMEM F12 supplemented with 10% FCS at 10,000 cells per well in 96-well clear bottom plates in the late afternoon and cultured for 16 h at 37 °C, 5% CO2. […] The cell viability was assessed using the CellTiter-Glo Luminescent assay (Promega) that measures ATP production. […] We however measured five compounds at the Leuven site and noticed that absolute IC50 values were different (Fig. S2). […]

Assay [2] concerns the target T2, PSEN1 L166A–APH1A γ-secretase complex (Homo sapiens, UniProt P49768, L166A).
T2 construct: expressed in transfected cells; host or cells: Psen1/2 double KO/Aph1ABC triple KO MEFs, pools without clonal selection
As to the kind of experiment: Aβ40 secretion, MEF cell pool restored with PSEN1 L166A–APH1A. The conditions noted are these: PSEN1 L166A (TM3)–APH1A cell pool; N = 3 to 4; mean (95% CI); decimal comma. The protocol:
as §1
(§4) Conditional Psen1/2 double KO mice were crossed with conditional Aph1ABC triple KO mice ([29], [52], [58], [59]). At embryonic day 7.5, embryos were dissected and dissociated, and cells were plated in the presence of Dulbecco’s modified Eagle’s medium (DMEM)/F12 50% fetal calf serum (FCS) (Invitrogen). Primary MEFs were immortalized by transduction with LargeT antigen. Psen1/2 double KO/Aph1ABC triple KO MEFs were generated by transduction with a Cre-GFP–expressing adenoviral vector, and GFP-positive MEFs were sorted by fluorescence-activated cell sorting analysis. Psen1/2 Aph1ABC-deficient MEFs were maintained in DMEM/f12 10% FCS. […]
(§5) The number of plated cells and incubation times were determined in respect to linearity of Aβ peptide secretion, the dynamic range of Aβ peptide quantification in the medium, and sensitivity to dimethylsulfoxide (DMSO). […] The cell viability was assessed using the CellTiter-Glo Luminescent assay (Promega) that measures ATP production. […] We however measured five compounds at the Leuven site and noticed that absolute IC50 values were different (Fig. S2). […]

Assay [3] has as its target T3, PSEN1 S169A–APH1A γ-secretase complex (Homo sapiens, UniProt P49768, S169A).
T3 construct: expressed in transfected cells; host or cells: Psen1/2 double KO/Aph1ABC triple KO MEFs, pools without clonal selection
As to the kind of experiment: Aβ40 secretion, MEF cell pool restored with PSEN1 S169A–APH1A. The conditions noted are these: PSEN1 S169A (TM3)–APH1A cell pool; N = 3 to 4; mean (95% CI); decimal comma. The protocol:
as §1, §4, §5

Assay [4] has as its target T4, PSEN1 S170A–APH1A γ-secretase complex (Homo sapiens, UniProt P49768, S170A).
T4 construct: expressed in transfected cells; host or cells: Psen1/2 double KO/Aph1ABC triple KO MEFs, pools without clonal selection
As to the kind of experiment: Aβ40 secretion, MEF cell pool restored with PSEN1 S170A–APH1A. The following applies: decimal comma; for IC50: PSEN1 S170A (TM3)–APH1A cell pool, N = 3 to 4, mean (95% CI). The protocol:
as §1
as §2, with “After puromycin selection (5 μg/ml), GFP-positive cells were selected through FACS sorting. For the alanine mutagenesis experiment, pMSCV PSEN1-APH1A viral vectors were generated by using a long PCR-based QuikChange strategy (Stratagene). Stable cell lines without clonal selection were generated for each mutant as described above. All cell lines were regularly tested for the absence of mycoplasma and used for maximum 20 passages in culture.” left out
as §5

Assay [5] deals with T5, PSEN1 I229A–APH1A γ-secretase complex (Homo sapiens, UniProt P49768, I229A).
T5 construct: expressed in transfected cells; host or cells: Psen1/2 double KO/Aph1ABC triple KO MEFs, pools without clonal selection
As to the kind of experiment: Aβ40 secretion, MEF cell pool restored with PSEN1 I229A–APH1A. The following applies: decimal comma; for IC50: PSEN1 I229A (TM5)–APH1A cell pool, N = 3 to 4, mean (95% CI); for IC50 fold change to WT: PSEN1 I229A–APH1A cell pool. The protocol:
as §1, §2, §3

Assay [6] has as its target T6, PSEN1 M233A–APH1A γ-secretase complex (Homo sapiens, UniProt P49768, M233A).
T6 construct: expressed in transfected cells; host or cells: Psen1/2 double KO/Aph1ABC triple KO MEFs, pools without clonal selection
As to the kind of experiment: Aβ40 secretion, MEF cell pool restored with PSEN1 M233A–APH1A. The conditions noted are these: decimal comma; for IC50: PSEN1 M233A (TM5)–APH1A cell pool, N = 3 to 4, mean (95% CI). The protocol: as §1
as §2, with “After puromycin selection (5 μg/ml), GFP-positive cells were selected through FACS sorting. For the alanine mutagenesis experiment, pMSCV PSEN1-APH1A viral vectors were generated by using a long PCR-based QuikChange strategy (Stratagene). Stable cell lines without clonal selection were generated for each mutant as described above. All cell lines were regularly tested for the absence of mycoplasma and used for maximum 20 passages in culture.” left out
as §5

Assay [7] concerns the target T7, PSEN1 I387A–APH1A γ-secretase complex (Homo sapiens, UniProt P49768, I387A).
T7 construct: expressed in transfected cells; host or cells: Psen1/2 double KO/Aph1ABC triple KO MEFs, pools without clonal selection
Put plainly: Aβ40 secretion, MEF cell pool restored with PSEN1 I387A–APH1A. The conditions noted are these: decimal comma; for IC50: PSEN1 I387A (TM7)–APH1A cell pool, N = 3 to 4, mean (95% CI). The protocol: as §1
as §2, with “After puromycin selection (5 μg/ml), GFP-positive cells were selected through FACS sorting. For the alanine mutagenesis experiment, pMSCV PSEN1-APH1A viral vectors were generated by using a long PCR-based QuikChange strategy (Stratagene). Stable cell lines without clonal selection were generated for each mutant as described above. All cell lines were regularly tested for the absence of mycoplasma and used for maximum 20 passages in culture.” left out
as §5

The target of assay [8] is T8, PSEN1 F388A–APH1A γ-secretase complex (Homo sapiens, UniProt P49768, F388A).
T8 construct: expressed in transfected cells; host or cells: Psen1/2 double KO/Aph1ABC triple KO MEFs, pools without clonal selection
Put plainly: Aβ40 secretion, MEF cell pool restored with PSEN1 F388A–APH1A. The conditions noted are these: decimal comma; for IC50: PSEN1 F388A (TM7)–APH1A cell pool, N = 3 to 4, mean (95% CI). The protocol: as §1
as §2, with “After puromycin selection (5 μg/ml), GFP-positive cells were selected through FACS sorting. For the alanine mutagenesis experiment, pMSCV PSEN1-APH1A viral vectors were generated by using a long PCR-based QuikChange strategy (Stratagene). Stable cell lines without clonal selection were generated for each mutant as described above. All cell lines were regularly tested for the absence of mycoplasma and used for maximum 20 passages in culture.” left out
as §5

Structures are written as SMILES. Values joined by “and” are separate entries in the source; they are usually repeats but may differ in a detail not shown here. Equal values may be shown once.

For the compound `O=S(=O)(c1ccc(Cl)cc1)N1[C@H]2CC[C@@H]([C@H]1c1ccc(C(F)(F)F)cc1)[C@@H](O)C2` [(+)-9b], the IC50 in assay [1] is 0.031 µM; in assay [2] it was 0.642 µM; in assay [3], 0.0078 µM; in assay [4], 0.132 µM; in assay [5], 0.042 µM; in assay [6], 0.462 µM. Further, the values for the IC50 in assay [7] and in assay [8] were 0.283 µM and 0.403 µM, respectively. The “IC50 fold change to WT” value in assay [1] was 1,076 fold; in assay [5] it was 1,440 fold.
On to `C[C@H](NC(=O)Cc1cc(F)cc(F)c1)C(=O)N[C@H](C(=O)OC(C)(C)C)c1ccccc1` [DAPT], for which the IC50 in assay [1] was determined as 0.234 µM; in assay [2], 1.37 µM; in assay [3], 0.026 µM; in assay [4] it was 0.139 µM; in assay [5], 0.334 µM; in assay [6], 0.449 µM. Moreover, the IC50 in assay [7] turned out to be 0.882 µM; in assay [8], 0.277 µM. Also, the “IC50 fold change to WT” value was 1,386 fold in assay [1]; 0,821 fold in assay [4] (PSEN1 S170A–APH1A cell pool); 1,980 fold in assay [5]; 2,658 fold in assay [6] (PSEN1 M233A–APH1A cell pool); 5,225 fold and > 3 fold in assay [7] (PSEN1 I387A–APH1A cell pool); 1,642 fold in assay [8] (PSEN1 F388A–APH1A cell pool).
